We go through six compounds from ChEMBL document CHEMBL1151535, “Oxiranes with quinoline substitution : Stereoselective synthesis and antiviral activity” (1996).

Molecules are shown by their SMILES.

Holding throughout (assay type): functional
Assay [1] concerns Encephalomyocarditis virus. The assay is described as follows: In vitro antiviral activity against Encephalomyocarditis virus(EMCV) […], at the concentration 1000-1 ug/ml.
For a further assay, the system named is Mus musculus. The assay is described as follows: In vivo antiviral activity against Encephalomyocarditis virus(EMCV) in mice, at the concentration 0.25 mg/mouse.
For assay [2], the system named is Encephalomyocarditis virus. As to the kind of experiment: In vitro antiviral activity against Encephalomyocarditis virus(EMCV) […], at the concentration 7.8 ug/ml.
The test system of assay [3] is Encephalomyocarditis virus. The assay is described as follows: In vitro antiviral activity against Encephalomyocarditis virus(EMCV) […], at the concentration 15.6 ug/ml.

With `Cc1cc(NNC(=O)[C@@H]2O[C@H]2c2ccncc2)nc2ccccc12`, the Protection in assay [1] came out at 0%.
In the case of `Cc1cc(NNC(=O)[C@@H]2O[C@H]2c2ccc3c(c2)OCO3)nc2ccccc12`, the results for the Protection (with Mus musculus; in assay [2]) were 10% and 75%, respectively.
Compound `Cc1cc(NNC(=O)[C@@H]2O[C@H]2c2ccc(Cl)cc2)nc2ccccc12` had a Protection in assay [1] of 0%.
On the same count and under the same terms, then `Cc1cc(NNC(=O)CCl)nc2ccccc12`, with 0%.
For the compound `COc1ccc([C@@H]2O[C@H]2C(=O)NNc2cc(C)c3ccccc3n2)cc1`, the Protection worked out at 25% in the assay with Mus musculus and 75% in assay [3].
As for `Cc1cc(NNC(=O)[C@@H]2O[C@H]2c2cccc([N+](=O)[O-])c2)nc2ccccc12`, the Protection in assay [1] was found to be 0%.
